Laboratory results published in PMC13119441, “Linking Chemical Profile to Enzyme Inhibition: A Comprehensive Bio-Guided Study of Lippia origanoides Kunth Essential Oil” (Plants, 2026).
Where a name gives a salt, the structure may show the parent alone.

Molecular target: T1, butyrylcholinesterase (BChE) (Equus caballus, UniProt P81908)
T1 construct: purchased Merck Life Science S.r.l; (Milan, Italy); host or cells: equine serum
Test: In vitro BChE inhibition test (spectrophotometric, Ellman)
Type: biochemical, equine
Conditions: 1.0 µg/mL in reaction mixture, read-out: % Enzyme Inhibition (n = 3)
Experimental: The assays were optimized for essential oil matrices, particularly by adjusting solvent conditions (DMSO content), substrate/enzyme ratios, and assay timing to ensure measurements within the linear kinetic range. The percentage inhibition of AChE, BChE, α-glucosidase, lipase and tyrosinase was measured according to the equation below: % Inhibition=∆AControl−∆A(Sample)/∆AControl×100 where: ∆A (Control) = A Control − A Control Blank∆A(Sample) = A Sample − A Sample Blank
The buffers used in the experiment were: buffer A (50 mM Tris-HCl, pH 8), buffer B (50 mM Tris-HCl, pH 8, supplemented with 0.1% bovine albumin and 0.1% TWEEN20) and buffer C (50 mM Tris-HCl, pH 8, containing 0.1 M NaCl and 0.02 M MgCl2•6H2O). The solutions for both enzymes (0.22 U/mL) were prepared using buffer B. Acetylthiocholine iodide (ATCI) at 1.5 mM was dissolved in Millipore water, while butyrylthiocholine iodide (BTCI) was dissolved in buffer A. Ellman’s reagent solution (3 mM) was prepared in buffer C.
The final concentration of DMSO in the reaction mixture was 0.3%. The mixture was incubated at 30 °C for 6 min, after which absorbance was measured at 405 nm.

T1 sequence (P81908 whole entry): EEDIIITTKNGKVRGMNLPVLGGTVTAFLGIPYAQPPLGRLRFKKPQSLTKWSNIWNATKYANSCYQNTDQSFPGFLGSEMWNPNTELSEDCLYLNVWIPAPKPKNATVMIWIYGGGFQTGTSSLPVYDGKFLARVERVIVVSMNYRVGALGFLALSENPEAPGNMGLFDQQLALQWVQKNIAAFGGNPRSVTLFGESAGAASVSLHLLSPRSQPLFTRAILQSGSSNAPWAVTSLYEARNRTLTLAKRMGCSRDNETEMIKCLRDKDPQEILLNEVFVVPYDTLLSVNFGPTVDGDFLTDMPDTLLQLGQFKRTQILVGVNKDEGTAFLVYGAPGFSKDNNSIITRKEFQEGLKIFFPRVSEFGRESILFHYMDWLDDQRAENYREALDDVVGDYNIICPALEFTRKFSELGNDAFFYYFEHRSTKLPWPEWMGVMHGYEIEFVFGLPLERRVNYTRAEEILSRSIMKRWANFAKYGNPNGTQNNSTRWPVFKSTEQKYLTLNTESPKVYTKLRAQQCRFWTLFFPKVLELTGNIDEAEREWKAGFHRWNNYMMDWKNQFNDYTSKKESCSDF

SMILES: COc1ccc2c3c1O[C@H]1C[C@@H](O)C=C[C@@]31CCN(C)C2 [Galanthamine, galanthamine hydrobromide]
- inhibition at 1 µg/mL: 24.7%
